Eight compounds from US6682892B2, “Method for treating herpes viruses” (priority 2000, dated 2004) can be followed below.

SMILES strings stand for the structures. Like-named read-outs stand apart in the source and are kept apart here.

Broadly, the IC50 is the point on the concentration scale where inhibition reaches its midpoint.

Holding throughout (format): cell-based
One test deals with HSV-1 KOS. Nature of the test: Plaque reduction assay, HSV-1 KOS. How it is done: (§1) Antiviral activity of compounds against herpesviruses such as HSV-1, HSV-2, or HCMV can be measured using plaque reduction assays. 0.1 ml of media containing approximately 50 PFU of virus is added to each well of a 24-well cell culture dish containing a confluent monolayer of cells (Vero cells for HSV-1 and HSV-2, HFF cells for HCMV). Compounds are dissolved in 100% DMSO and diluted in 100% DMSO as 200× stocks of the desired final drug concentration. Typically 5-6 two-fold dilutions are prepared for each compound. Dilutions of compounds are then added to media containing 0.8% CMC resulting in a final 1× drug concentration. After the virus-infected cells have incubated for 1 h at 37° C., the virus innoculum is removed and 1 ml of media containing 0.8% CMC and the various concentrations of compound is added to each well of the dish. The dish is incubated at 37° C. for approximately 2-3 days (HSV-1 and HSV-2) or 6-9 days (HCMV) to allow sufficient growth of virus to form plaques in the cell monolayer. Plaques can be observed and counted microscopically or by staining the cells with 0.1% crystal violet in 20% ethanol. […] Antiviral activity of a compound is expressed as the concentration of compound predicted to reduce the number of plaques in a well by 50% (IC50). The IC50 values are calculated by plotting the per cent inhibition vs. concentration of compound using EXCEL software for linear regression.
(§2) A panel of viruses consisting of four strains of HSV-1 (KOS, F, DJL, Patton) and three strains of HSV-2 (MS, 35D, 186) are tested in a plaque reduction assay against four different 4-oxo-DHQ compounds (#1, 2, 4, 5 as shown in FIG. 1), and one 4-oxo-DHTP compound (#3 as shown in FIG. 1) and against Acyclovir. The six drugs inhibited replication of the seven virus strains with IC50 values ranging from 2-10 μM (Table 1). In order to select for 4-oxo-DHQ resistant mutants, HSV-1 strains KOS, F, and DJL along with HSV-2 strains 186 and MS are serially passaged in the presence of 20 uM compound 1. Following the seventh passage, 4-oxo-DHQ resistant virus from each strain are plaque purified three times and high-titer stocks are made.
Background: Plaques are areas of infected cells; plaque reduction assays count them against a control.

In the next test the test system is HSV-1 F. Description: Plaque reduction assay, HSV-1 F. As to conditions: Table 1, plaque reduction, Vero cells. How it is done: as §1, §2
Another test concerns HSV-1 DJL. Nature of the test: Plaque reduction assay, HSV-1 DJL. As to conditions: Table 1, plaque reduction, Vero cells. How it is done: as §1, §2
Another test relates to HSV-1 Patton. Nature of the test: Plaque reduction assay, HSV-1 Patton. The settings on record: Table 1, plaque reduction, Vero cells. How it is done: as §1, §2
The test system of the next test is HSV-2 MS. Nature of the test: Plaque reduction assay, HSV-2 MS. How it is done:
as §1, §2

The next test deals with HSV-2 35D. Nature of the test: Plaque reduction assay, HSV-2 35D. The settings on record: Table 1, plaque reduction, Vero cells. How it is done: as §1, §2
The subject of another test is HSV-2 186. Nature of the test: Plaque reduction assay, HSV-2 186. As to conditions: Table 1, plaque reduction, Vero cells. How it is done:
as §1, §2

The next test has as its system HSV-1 KOS-M1 (V823A). Description: Plaque reduction assay, 4-oxo-DHQ resistant HSV-1 KOS-M1. How it is done:
as §1
(§3) Vero cells are plated out at a density of 3.5×10^5 cells per well in a six well tissue culture plate. Cells are infected with HSV-1 KOS at a multiplicity of infection (moi) of 0.1 pfu/cell and 1 h post infection the cells are overlayed with 3 ml media containing 20 uM of a 4-oxo-DHQ. Cultures are incubated for 20 h at 37° C., freeze/thawed to release cell-associated virus, and 0.1 ml of culture is used to infect a new monolayer of Vero cells (one passage). Serial passage is repeated seven times in the presence of 20 uM drug. Virus isolates are then plaque purified three times prior to preparation of stocks. 4-oxo-DHQ resistant HSV-1 and HSV-2 may also be selected by the marker transfer method described below using wild-type HSV DNA and the corresponding mutant HSV polymerase gene.
as §2

Another test deals with HSV-2 MS-M1 (V826A). Description: Plaque reduction assay, 4-oxo-DHQ resistant HSV-2 MS-M1. How it is done: as §1, §3, §2
The subject of the next test is HCMV AD169. Description: Plaque reduction assay, HCMV AD169. The settings on record: Table 5, wild type strain; read-out: Plaque Reduction Assay - IC50 (μM) HCMV AD169. How it is done:
as §1

For test [1], the system named is HCMV AD169-M1 (V823A, V824L). Description: Plaque reduction assay, 4-oxo-DHQ resistant HCMV AD169-M1. The settings on record: Table 5, mutant selected for 4-oxo-DHQ resistance; read-out: Plaque Reduction Assay - IC50 (μM) HCMV AD169-M1. How it is done:
as §1
A plasmid containing the wild-type HCMV polymerase gene is modified to contain the V823A or V823A and V824L mutations using a site-directed mutagenesis Kit (Stratagene Corp.) and following the manufactures's protocol. HFF cells are plated into T25 tissue culture flasks to achieve 80% confluency at the time of the transfection. Wild type HCMV AD 169 DNA and plasmid DNA containing the mutant HCMV polymerase gene are mixed at a ratio of 1:2 (2 ug of viral DNA to 4 ug of plasmid DNA). DNA's are transfected using superfect transfection reagent according to methods recommended by the manufacturer (Quiagen Inc.). Cells are harvested five days posttransfection, freeze-thawed to release virus and half of the sample is used to infect HFF cell monolayers. Cells are overlayed with media containing 20 uM 4-oxo-DHQ compound 2 (see FIG. 1). Serial passage is repeated seven times in the presence of 20 uM compound 2 and virus isolates are then plaque purified three times prior to preparation of viral stock.
In order to isolate an HCMV resistant mutant marker rescue experiments are done. Plasmids containing the mutant polymerase genes are transfected into HFF cells along with wild type HCMV AD169 DNA. The resulting virus is then serially passaged in the presence of 20 uM compound 1 (see FIG. 1). A 4-oxo-DHQ resistant virus is isolated from marker rescue studies done with the HCMV polymerase gene containing mutations that result in the V823A, V824L amino acid changes, but not with the gene containing V823A change alone.

Setting [2] is: Table 1, plaque reduction, Vero cells, read-out: IC50 (uM), HSV-1 KOS.
Setting [3] is: Table 5, wild type strain, read-out: Plaque Reduction Assay - IC50 (μM) HSV-1 KOS.
[4] abbreviates: Table 1, plaque reduction, Vero cells, read-out: IC50 (uM), HSV-2 MS.
Where [5] appears, read: Table 5, wild type strain, read-out: Plaque Reduction Assay - IC50 (μM) HSV-2 MS.
Where [6] appears, read: Table 5, mutant selected for 4-oxo-DHQ resistance, read-out: Plaque Reduction Assay - IC50 (μM) HSV-1 KOS-M1.
The mark [7] stands for this setting: Table 5, mutant selected for 4-oxo-DHQ resistance, read-out: Plaque Reduction Assay - IC50 (μM) HSV-2 MS-M1.

`Cn1cc(C(=O)NCc2ccc(Cl)cc2)c(=O)c2cc(CN3CCOCC3)sc21` [Compound 3]: the IC50 was determined as 3.2 µM in the test on HSV-1 KOS (setting [2]); 4 µM with HSV-1 KOS (setting [3]); 2.2 µM in the test with HSV-1 F; 1.8 µM in the test with HSV-1 DJL; 7.7 µM with HSV-1 Patton; 2.8 µM in the test on HSV-2 MS (setting [4]). In addition, the IC50 in the test with HSV-2 MS (setting [5]) was 0.8 µM; in the test on HSV-2 35D, 5 µM; in the test on HSV-2 186, 3.2 µM; in the test with HSV-1 KOS-M1 (V823A) (setting [6]), over 50 µM; in the test on HSV-2 MS-M1 (V826A) (setting [7]), over 50 µM; in the test with HCMV AD169 it was 1.5 µM. Further, the IC50 in [1] stood at 6.2 µM.

For the compound `O=C(NCc1ccc(Cl)cc1)c1cn2c3c(cc(CN4CCOCC4)cc3c1=O)OCC2` [Compound 4], the IC50 worked out at 3.2 µM in the test on HSV-1 KOS (setting [2]); 4.2 µM in the test with HSV-1 KOS (setting [3]); 2.1 µM in the test on HSV-1 F; 2.2 µM with HSV-1 DJL; 4.3 µM with HSV-1 Patton; 2.5 µM in the test with HSV-2 MS (setting [4]). For the same compound, the IC50 is 2.1 µM in the test on HSV-2 MS (setting [5]); 3.2 µM in the test on HSV-2 35D; 2.3 µM in the test with HSV-2 186; over 50 µM with HSV-1 KOS-M1 (V823A) (setting [6]); 28.4 µM in the test on HSV-2 MS-M1 (V826A) (setting [7]); 0.6 µM with HCMV AD169.

In the case of `O=C(NCc1ccc(Cl)cc1)c1cn(N2CCOCC2)c2ccc(CN3CCOCC3)cc2c1=O` [Compound 5], the 50% inhibitory concentration (IC50) in the test on HSV-1 KOS (setting [2]) came to 3.3 µM; with HSV-1 F it was 2.6 µM; in the test on HSV-1 DJL, 2.7 µM; in the test on HSV-1 Patton, 10 µM; with HSV-2 MS (setting [4]), 2.5 µM; in the test on HSV-2 35D, 8.1 µM. This compound also showed an IC50 in the test on HSV-2 186 of 4.2 µM.

Take `Cc1nc2c(cc1C#CCO)c(=O)c(C(=O)NCc1ccc(Cl)cc1)cn2C` [Compound 15]: the IC50 is over 50 µM in the test with HSV-1 KOS (setting [3]); 5.9 µM in the test with HSV-2 MS (setting [5]); over 50 µM with HSV-1 KOS-M1 (V823A) (setting [6]); over 50 µM in the test on HSV-2 MS-M1 (V826A) (setting [7]); 0.7 µM in the test with HCMV AD169; 7.7 µM in test [1].

As for `Cn1cc(C(=O)NCc2ccc(Cl)cc2)c(=O)c2cc(CN3CCOCC3)ccc21` [Compound 2], the IC50 in the test with HSV-1 KOS (setting [2]) amounted to 3.8 µM; in the test with HSV-1 KOS (setting [3]), 3.3 µM; in the test on HSV-1 F, 2.3 µM; with HSV-1 DJL, 2.6 µM; in the test on HSV-1 Patton it was 5.3 µM; in the test on HSV-2 MS (setting [4]), 2.5 µM. Besides, the IC50 in the test on HSV-2 MS (setting [5]) is 1.3 µM; in the test on HSV-2 35D, 5.4 µM; with HSV-2 186 it was 2.3 µM; with HSV-1 KOS-M1 (V823A) (setting [6]), over 50 µM; in the test on HSV-2 MS-M1 (V826A) (setting [7]) it was over 50 µM; in the test on HCMV AD169, 0.4 µM. Besides, in [1], the IC50 amounted to 4 µM.

Consider `Nc1nc2c(ncn2COCCO)c(=O)[nH]1` [ACV, Acyclovir, reference compound], for which the IC50 in the test with HSV-1 KOS (Human alphaherpesvirus 1, Table 1, plaque reduction, Vero cells, read-out: IC50 (uM), HSV-1 KOS) amounted to 3.6 µM; with HSV-1 KOS (Human alphaherpesvirus 1, Table 5, wild type strain, read-out: Plaque Reduction Assay - IC50 (μM) HSV-1 KOS), 3.9 µM; in the test on HSV-1 F (Human alphaherpesvirus 1), 1.3 µM; with HSV-1 DJL (Human alphaherpesvirus 1), 1.8 µM; in the test on HSV-1 Patton (Human alphaherpesvirus 1) it was 9.3 µM; with HSV-2 MS (Human alphaherpesvirus 2, Table 1, plaque reduction, Vero cells, read-out: IC50 (uM), HSV-2 MS) it was 10 µM. Also, the IC50 is 2.4 µM in the test with HSV-2 MS (Human alphaherpesvirus 2, Table 5, wild type strain, read-out: Plaque Reduction Assay - IC50 (μM) HSV-2 MS); 6 µM in the test with HSV-2 35D (Human alphaherpesvirus 2); over 10 µM in the test on HSV-2 186 (Human alphaherpesvirus 2); 4.4 µM in the test on HSV-1 KOS-M1 (V823A) (Human alphaherpesvirus 1, read-out: Plaque Reduction Assay - IC50 (μM) HSV-1 KOS-M1); 2.8 µM in the test on HSV-2 MS-M1 (V826A) (Human alphaherpesvirus 2, read-out: Plaque Reduction Assay - IC50 (μM) HSV-2 MS-M1).

For the compound `Cn1cc(C(=O)NCc2ccc(Cl)cc2)c(=O)c2cc(CN3CCOCC3)cc(C#CCO)c21` [Compound 12], the IC50 with HSV-1 KOS (setting [3]) is 1.3 µM; in the test with HSV-2 MS (setting [5]), 0.4 µM; in the test on HSV-1 KOS-M1 (V823A) (setting [6]), over 50 µM; in the test with HSV-2 MS-M1 (V826A) (setting [7]) it was 12.5 µM; with HCMV AD169, 0.2 µM; in [1], 1.1 µM.

In the case of `O=C(NCc1ccc(Cl)cc1)c1cn(C2COC2)c2ccc(CN3CCOCC3)cc2c1=O` [Compound 11], the IC50 was 3.1 µM in the test with HSV-1 KOS (setting [3]); 3 µM in the test with HSV-2 MS (setting [5]); over 50 µM in the test on HSV-1 KOS-M1 (V823A) (setting [6]); over 50 µM in the test on HSV-2 MS-M1 (V826A) (setting [7]); 0.7 µM in the test on HCMV AD169; 3.9 µM in test [1].
